Molecules are shown by their SMILES.

human BACE1, sequence (P56817 46-501): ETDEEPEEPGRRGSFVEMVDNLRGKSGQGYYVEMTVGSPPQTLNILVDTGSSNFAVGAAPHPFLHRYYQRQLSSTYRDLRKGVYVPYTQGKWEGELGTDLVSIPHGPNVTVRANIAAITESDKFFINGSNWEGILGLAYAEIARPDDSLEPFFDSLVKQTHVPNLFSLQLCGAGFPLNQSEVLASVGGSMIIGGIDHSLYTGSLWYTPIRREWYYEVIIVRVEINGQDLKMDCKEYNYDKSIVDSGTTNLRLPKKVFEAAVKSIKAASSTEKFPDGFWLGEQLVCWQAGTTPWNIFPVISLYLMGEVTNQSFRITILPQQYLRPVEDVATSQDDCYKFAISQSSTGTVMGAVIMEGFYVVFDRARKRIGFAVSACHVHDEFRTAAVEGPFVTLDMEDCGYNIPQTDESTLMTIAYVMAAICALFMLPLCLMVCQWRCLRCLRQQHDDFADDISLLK

The target of the test is human BACE1 (Homo sapiens, UniProt P56817). As to the kind of experiment: Fluorescent kinetic assay, evaluation of BACE1 binding affinity of test compounds. Format: biochemical. The settings on record: 10 nM human BACE1, 25 μM substrate WABC-6, pH 4.5, room temperature; read-out: BACE1 IC50. Put shortly:
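Kinetic fluorescence assay: enzyme added last to inhibitor and substrate mix, reading started immediately; substrate at 100 μM working dilution (25 μL in 100 μL total). Buffer 66.7 mM Na-acetate pH 4.5 with 0.0667% CHAPS for inhibitor and enzyme dilutions; enzyme stock quantified at 280 nm.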
By IC50 is commonly meant the point on the concentration scale where inhibition reaches its midpoint. For `CCc1cc(C2(c3ccc(F)c(OCCC(F)F)c3)N=C(N)N(C)C2=O)ccc1OC(F)F` (stereo not shown) [Example 134, 2-Amino-5-[4-(difluoromethoxy)-3-ethylphenyl]-5-[3-(3,3-difluoropropoxy)-4-fluorophenyl]-3-methyl-3,5-dihydro-4H-imidazol-4-one], the 50% inhibitory concentration (IC50) was under 100 nM.
As for `CCc1cc([C@@]2(c3ccc(F)c(OCCC(F)F)c3)N=C(N)N(C)C2=O)ccc1OC(F)F` [Example 135, (5S)-2-Amino-5-[4-(difluoromethoxy)-3-ethylphenyl]-5-[3-(3,3-difluoropropoxy)-4-fluorophenyl]-3-methyl-3,5-dihydro-4H-imidazol-4-one], the figure is over 1000 nM; as for `CCc1cc([C@]2(c3ccc(F)c(OCCC(F)F)c3)N=C(N)N(C)C2=O)ccc1OC(F)F` [Example 136, (5R)-2-Amino-5-[4-(difluoromethoxy)-3-ethylphenyl]-5-[3-(3,3-difluoropropoxy)-4-fluorophenyl]-3-methyl-3,5-dihydro-4H-imidazol-4-one], under 100 nM.
Take `CC(C)c1cc(C2(c3ccccc3)N=C(N)N(C)C2=O)ccc1OC(F)F` (stereo not shown) [Example 137, 2-Amino-5-[4-(difluoromethoxy)-3-isopropylphenyl]-3-methyl-5-phenyl-3,5-dihydro-4H-imidazol-4-one]: the 50% inhibitory concentration (IC50) was in the range of 110 to 1000 nM.
The value for `CN1C(=O)C(c2ccccc2)(c2ccc(OC(F)F)c(CCO)c2)N=C1N` (stereo not shown) [Example 140, 2-Amino-5-[4-(difluoromethoxy)-3-(2-hydroxyethyl)phenyl]-3-methyl-5-phenyl-3,5-dihydro-4H-imidazol-4-one] was 110 to 1000 nM; that for `CN1C(=O)C(c2ccccc2)(c2ccc(OC(F)F)c(CCCl)c2)N=C1N` (stereo not shown) [Example 141, 2-Amino-5-[4-(difluoromethoxy)-3-(2-chloroethyl)phenyl]-3-methyl-5-phenyl-3,5-dihydro-4H-imidazol-4-one] was under 100 nM; that for `COCCc1cc(C2(c3ccccc3)N=C(N)N(C)C2=O)ccc1OC(F)F` (stereo not shown) [Example 142, 2-Amino-5-[4-(difluoromethoxy)-3-(2-methoxyethyl)phenyl]-3-methyl-5-phenyl-3,5-dihydro-4H-imidazol-4-one] was under 100 nM.
For the compound `CN1C(=O)[C@@](c2ccccc2)(c2ccc(OC(F)F)c(CCCl)c2)N=C1N` [Example 144, (5R)-2-Amino-5-[3-(2-chloroethyl)-4-(difluoromethoxy)phenyl]-3-methyl-5-phenyl-dihydro-4H-imidazol-4-one], the IC50 is over 1000 nM.
Regarding `CC(C)c1cc(C2(c3ccc(F)c(C#CC4CC4)c3)N=C(N)N(C)C2=O)ccc1OC(F)F` (stereo not shown) [Example 145, 2-Amino-5-[3-(cyclopropylethynyl)-4-fluorophenyl]-5-[4-(difluoromethoxy)-3-isopropylphenyl]-3-methyl-3,5-dihydro-4H-imidazol-4-one], the half-maximal inhibitory concentration (IC50) is under 100 nM.
On to `CCc1cc(C2(c3ccc(F)c(C#CC4CC4)c3)N=C(N)N(C)C2=O)ccc1OC(F)F` (stereo not shown) [Example 146, 2-Amino-5-[3-(cyclopropylethynyl)-4-fluorophenyl]-5-[4-(difluoromethoxy)-3-ethylphenyl]-3-methyl-3,5-dihydro-4H-imidazol-4-one], for which the IC50 was under 100 nM.
Consider `CCc1cc([C@]2(c3ccc(F)c(C#CC4CC4)c3)N=C(N)N(C)C2=O)ccc1OC(F)F` [Example 147, (5R)-2-Amino-5-[3-(cyclopropylethynyl)-4-fluorophenyl]-5-[4-(difluoromethoxy)-3-ethylphenyl]-3-methyl-3,5-dihydro-4H-imidazol-4-one], for which the IC50 is under 100 nM.
As to `CCc1cc([C@@]2(c3ccc(F)c(C#CC4CC4)c3)N=C(N)N(C)C2=O)ccc1OC(F)F` [Example 148, (5S)-2-Amino-5-[3-(cyclopropylethynyl)-4-fluorophenyl]-5-[4-(difluoromethoxy)-3-ethylphenyl]-3-methyl-3,5-dihydro-4H-imidazol-4-one], the IC50 lay in the range of 110 to 1000 nM.
As for `CCc1cc(C2(c3ccc(F)c(C#CCC(C)C)c3)N=C(N)N(C)C2=O)ccc1OC(F)F` (stereo not shown) [Example 149, 2-Amino-5-[4-(difluoromethoxy)-3-ethylphenyl]-5-[4-fluoro-3-(4-methylpent-1-yn-1-yl)phenyl]-3-methyl-3,5-dihydro-4H-imidazol-4-one], the figure is 110 to 1000 nM.
As for `CCc1cc([C@]2(c3ccc(F)c(C#CCC(C)C)c3)N=C(N)N(C)C2=O)ccc1OC(F)F` [Example 150, (5R)-2-Amino-5-[4-(difluoromethoxy)-3-ethylphenyl]-5-[4-fluoro-3-(4-methylpent-1-yn-1-yl)phenyl]-3-methyl-3,5-dihydro-4H-imidazol-4-one], the IC50 was under 100 nM.
Take `CCc1cc([C@@]2(c3ccc(F)c(C#CCC(C)C)c3)N=C(N)N(C)C2=O)ccc1OC(F)F` [Example 151, (5S)-2-Amino-5-[4-(difluoromethoxy)-3-ethylphenyl]-5-[4-fluoro-3-(4-methylpent-1-yn-1-yl)phenyl]-3-methyl-3,5-dihydro-4H-imidazol-4-one]: the IC50 was over 1000 nM.
`CCc1cc(C2(c3ccc(F)c(C#CCOC)c3)N=C(N)N(C)C2=O)ccc1OC(F)F` (stereo not shown) [Example 152, 2-Amino-5-[4-(difluoromethoxy)-3-ethylphenyl]-5-[4-fluoro-3-(3-methoxyprop-1-yn-1-yl)phenyl]-3-methyl-3,5-dihydro-4H-imidazol-4-one]: the IC50 is under 100 nM.
As for `CCc1cc(C2(c3ccc(F)c(C#CC(C)C)c3)N=C(N)N(C)C2=O)ccc1OC(F)F` (stereo not shown) [Example 153, 2-Amino-5-[4-(difluoromethoxy)-3-ethylphenyl]-5-[4-fluoro-3-(3-methylbut-1-yn-1-yl)phenyl]-3-methyl-3,5-dihydro-4H-imidazol-4-one], the half-inhibitory concentration (IC50) was under 100 nM.
In the case of `CCc1cc([C@]2(c3ccc(F)c(C#CC(C)C)c3)N=C(N)N(C)C2=O)ccc1OC(F)F` [Example 154, (5R)-2-Amino-5-[4-(difluoromethoxy)-3-ethylphenyl]-5-[4-fluoro-3-(3-methylbut-1-yn-1-yl)phenyl]-3-methyl-3,5-dihydro-4H-imidazol-4-one], the 50% inhibitory concentration (IC50) was under 100 nM.
With `CCc1cc([C@@]2(c3ccc(F)c(C#CC(C)C)c3)N=C(N)N(C)C2=O)ccc1OC(F)F` [Example 155, (5S)-2-Amino-5-[4-(difluoromethoxy)-3-ethylphenyl]-5-[4-fluoro-3-(3-methylbut-1-yn-1-yl)phenyl]-3-methyl-3,5-dihydro-4H-imidazol-4-one], the half-inhibitory concentration (IC50) lay in the range of 110 to 1000 nM.
The value for `CCc1cc([C@]2(c3ccc(F)c(C#CCOC)c3)N=C(N)N(C)C2=O)ccc1OC(F)F` [Example 156, (5R)-2-Amino-5-[4-(difluoromethoxy)-3-ethylphenyl]-5-[4-fluoro-3-(3-methoxyprop-1-yn-1-yl)phenyl]-3-methyl-3,5-dihydro-4H-imidazol-4-one] was under 100 nM; that for `CCc1cc([C@@]2(c3ccc(F)c(C#CCOC)c3)N=C(N)N(C)C2=O)ccc1OC(F)F` [Example 157, (5S)-2-Amino-5-[4-(difluoromethoxy)-3-ethylphenyl]-5-[4-fluoro-3-(3-methoxyprop-1-yn-1-yl)phenyl]-3-methyl-3,5-dihydro-4H-imidazol-4-one] was 110 to 1000 nM.
As for `CCc1cc(C2(c3cccc(C#CCF)c3)N=C(N)N(C)C2=O)ccc1OC(F)F` (stereo not shown) [Example 158, 2-Amino-5-[4-(difluoromethoxy)-3-ethylphenyl]-5-[3-(3-fluoroprop-1-yn-1-yl)phenyl]-3-methyl-3,5-dihydro-4H-imidazol-4-one], the figure is under 100 nM.

Values taken from US20090042964A1, “AMINO-5-[SUBSTITUTED-4-(DIFLUOROMETHOXY)PHENYL]-5-PHENYLIMIDAZOLONE COMPOUNDS AS BETA-SECRETASE INHIBITORS” (Wyeth, priority 2007, published 2009).
